Test systems include MOLT-4 leukemia; KM12 colon; ACHN renal; UACC-62 melanoma; SF-295 CNS; K-562 leukemia; SK-OV-3 ovarian; UO-31 renal; NCI-H522 lung; LOX IMVI melanoma.
Common to all, as to assay: DTP human tumour cell line panel, 48 h

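Dose response: 5 concentrations. Exposure: 48 h. Format: 96-well plates. Endpoint: linear interpolation; highest concentration if not reached. GI50 = concentration required for 50% inhibition of growth. The concentration for full growth arrest is given as TGI.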

`CCOC(=O)C1c2[nH]c3ccccc3c2CCN1C(=O)c1ccco1` (centres undefined): the concentration for total growth inhibition (TGI) in the test with MOLT-4 leukemia, in the test with KM12 colon, in the test with ACHN renal, in the test with UACC-62 melanoma, in the test with SF-295 CNS and in the test with K-562 leukemia was above 10 µM throughout. Also, the TGI in the test with SK-OV-3 ovarian is above 10 µM.

For the molecule `C[C@]12CCC3[C@@H](C[C@H]4OC(=O)[C@@]35CCC(=O)C=C45)C1CCC2=O` (some centres undefined), the TGI in the test with MOLT-4 leukemia, with UO-31 renal, with KM12 colon, in the test with ACHN renal, in the test with NCI-H522 lung and in the test on SF-295 CNS was above 100 µM in each case. In addition, the TGI in the test on K-562 leukemia and with SK-OV-3 ovarian was above 100 µM each time.

As to `COc1ccc(Nc2c3c4c(cccc4[nH]c2=O)C(=O)c2ccccc2-3)cc1`, the GI50 in the test with MOLT-4 leukemia is 0.558 µM; with UO-31 renal, 0.319 µM; with LOX IMVI melanoma, 0.0239 µM; with KM12 colon, below 0.0182 µM; with ACHN renal, 0.0406 µM; in the test with NCI-H522 lung, below 0.0175 µM. In addition, the GI50 in the test on UACC-62 melanoma is 0.031 µM; in the test with SF-295 CNS, below 0.0174 µM; with SK-OV-3 ovarian, 0.0492 µM. For the same molecule, the TGI with UO-31 renal is above 100 µM; in the test on LOX IMVI melanoma it was above 100 µM; in the test with KM12 colon, 0.181 µM; with ACHN renal, above 100 µM; in the test with UACC-62 melanoma, above 100 µM; in the test with SF-295 CNS it was below 0.0275 µM. Also, the TGI with SK-OV-3 ovarian was above 56.3 µM.

For the molecule `COc1ccc(-c2cc(-c3ccc(O)cc3)nc3nc(=S)[nH]c(N)c23)cc1`, the GI50 is 7.01 µM with MOLT-4 leukemia; 13.2 µM with UO-31 renal; 12 µM with LOX IMVI melanoma; 16.9 µM in the test on KM12 colon; 19.1 µM in the test with ACHN renal; 8.5 µM with NCI-H522 lung. The GI50 was 14.7 µM in the test on UACC-62 melanoma, 20 µM with SF-295 CNS and 16.9 µM with K-562 leukemia. Moreover, the TGI is above 100 µM in the test with MOLT-4 leukemia; 44.9 µM in the test with UO-31 renal; 30.3 µM with LOX IMVI melanoma; 41.3 µM with KM12 colon; 65.5 µM with ACHN renal; 27.8 µM with NCI-H522 lung. For the same molecule, the TGI is 30.3 µM in the test with UACC-62 melanoma, 61.6 µM in the test with SF-295 CNS and above 100 µM with K-562 leukemia.

As to `O=c1c2cc(Br)ccc2[nH]c(=S)n1-c1ccc(Br)cc1`, the TGI in the test on MOLT-4 leukemia, in the test on UO-31 renal, in the test with LOX IMVI melanoma, with KM12 colon, in the test on ACHN renal and with NCI-H522 lung was above 100 µM each time. The TGI in the test on SF-295 CNS and in the test with K-562 leukemia was above 100 µM each time.

For `O=C(CCc1nnc(-c2c(Cl)cccc2Cl)o1)c1nc2ccccc2[nH]1`, the GI50 with MOLT-4 leukemia is 4.07 µM; with UO-31 renal, 6.71 µM; with LOX IMVI melanoma it was 4.03 µM; in the test with KM12 colon, 3.16 µM; with ACHN renal, 11.9 µM; in the test on UACC-62 melanoma, 3.34 µM. Further, the GI50 is 5.98 µM in the test with SF-295 CNS and 4.6 µM with SK-OV-3 ovarian. Further, the concentration for total growth inhibition (TGI) with MOLT-4 leukemia is 25.8 µM; in the test on UO-31 renal, 32.9 µM; with LOX IMVI melanoma it was 39.8 µM; in the test on KM12 colon it was 11 µM; in the test with ACHN renal it was above 100 µM; in the test with UACC-62 melanoma, 27.8 µM. Further, the figures for the TGI with SF-295 CNS and in the test with SK-OV-3 ovarian were 42.9 µM and 30.5 µM, respectively.

In the case of `Cc1cc2cc(Cl)ccc2nc1C(=O)c1ccccc1`, the TGI with MOLT-4 leukemia, with UO-31 renal, with LOX IMVI melanoma, with KM12 colon, in the test on ACHN renal and in the test on NCI-H522 lung was above 100 µM throughout. The TGI in the test on UACC-62 melanoma, with SF-295 CNS and with K-562 leukemia was above 100 µM in each case.

Take `O=c1oc2c3ccc4ccccc4c3n(CCN3CCOCC3)c2c2ccccc12`: the TGI with MOLT-4 leukemia is 18.5 µM; in the test with UO-31 renal it was above 100 µM; with LOX IMVI melanoma it was above 100 µM; with KM12 colon it was above 100 µM; with ACHN renal, above 100 µM; in the test on NCI-H522 lung it was above 100 µM. The concentration for total growth inhibition (TGI) in the test with UACC-62 melanoma, in the test with SF-295 CNS and with SK-OV-3 ovarian was above 100 µM in each case.

Regarding `COc1ccc2c(c1)CCc1cnn(C3OC(COC(C)=O)C(OC(C)=O)C(OC(C)=O)C3OC(C)=O)c1-2` (centres undefined), the TGI in the test with MOLT-4 leukemia is 74.3 µM; with LOX IMVI melanoma it was above 100 µM; in the test with KM12 colon it was above 100 µM; with ACHN renal, above 100 µM; with NCI-H522 lung, 31.7 µM; in the test on UACC-62 melanoma it was above 100 µM. In addition, the TGI in the test on SF-295 CNS and in the test with K-562 leukemia was above 100 µM throughout.

`CC1(C)CC[C@]2(C(=O)n3ccnc3)CC[C@]3(C)[C@H](C(=O)C=C4[C@@]5(C)C=C(C#N)C(=O)C(C)(C)[C@@H]5CC[C@]43C)[C@@H]2C1`: the GI50 with MOLT-4 leukemia is below 0.01 µM; in the test with UO-31 renal, below 0.0108 µM; in the test on KM12 colon it was below 0.0104 µM; in the test on ACHN renal, below 0.0114 µM; in the test with NCI-H522 lung it was 0.0168 µM; with UACC-62 melanoma it was below 0.014 µM. Moreover, the GI50 is 0.0152 µM in the test on SF-295 CNS, below 0.01 µM in the test with K-562 leukemia and 0.0347 µM in the test with SK-OV-3 ovarian. Moreover, the TGI with MOLT-4 leukemia is below 0.01 µM; in the test with UO-31 renal, below 0.0174 µM; in the test on KM12 colon, below 0.0199 µM; in the test with ACHN renal it was below 0.0172 µM; in the test with NCI-H522 lung, 0.0585 µM; in the test with UACC-62 melanoma, below 0.0336 µM. Further, the results for the TGI with SF-295 CNS, in the test with K-562 leukemia and in the test on SK-OV-3 ovarian were 0.0975 µM, 0.13 µM and 0.317 µM, respectively.

With `[N-]=[N+]=Nc1ccccc1-[n+]1noc([O-])c1Br`, the TGI with MOLT-4 leukemia, in the test with UO-31 renal, in the test with KM12 colon, with ACHN renal, in the test on NCI-H522 lung and in the test on UACC-62 melanoma was above 100 µM in each case. Further, the TGI in the test on SF-295 CNS, in the test with K-562 leukemia and in the test with SK-OV-3 ovarian was above 100 µM in each case.

As for `COCC1C(=O)c2cc3c(cc2C12C=CC1(C=C2)OCCO1)OCO3` (centres undefined), the total growth inhibition concentration (TGI) in the test with MOLT-4 leukemia worked out at 9.6 µM; with KM12 colon, 18.2 µM; with ACHN renal, 25.3 µM; in the test with NCI-H522 lung, 3.96 µM; with UACC-62 melanoma, 24.6 µM; in the test with SF-295 CNS, 27.9 µM. For the same molecule, the results for the TGI in the test with K-562 leukemia and with SK-OV-3 ovarian were 11.2 µM and 29.7 µM, respectively.

In general, TGI refers to the concentration at which net growth stops. One may read the GI50 as the concentration that inhibits growth by half.
